The nature of this data set: PBMC PK of CDV-PP following IV and oral suspension BCV. It is filed as in vivo, human. To be noted: PBMC CDV-PP. As to the method: Two single dose BCV studies in healthy subjects contributed data for this analysis. The first study was a 2-period crossover bioequivalence study that enrolled 24 subjects who received two formulations of BCV oral suspension 100 mg fasted, one in each period. Data from 12 subjects who had PBMCs collected in Period 1 were included in this analysis; these subjects were 100% female, 31-59 years, and 58-88 kg. The second study, outlined above, enrolled 40 subjects who received IV BCV or placebo. Data from 18 subjects who received BCV 50 mg as either a 2-h or 4-h IV infusion were included in this analysis; these subjects were 100% male, 18-46 years, 64-106 kg. Serial PBMC samples were collected over 14 days and assayed by HPLC-MS-MS. PBMC CDV-PP PK parameters were determined by non-compartmental analysis.

[1] abbreviates: BCV 50 mg IV 2 h Infusion, n = 9.
The mark [2] stands for this setting: BCV 50 mg IV 4 h Infusion, n = 9.
Where [3] appears, read: BCV 100 mg Oral suspension, n = 12.

The values that follow come from patent US20170368082A1, “FORMULATIONS OF BRINCIDOFOVIR” (priority 2016, published 2017).

For cidofovir diphosphate [CDV-PP], the AUClast was found to be 1409 pg · h/10^6 cells under setting [1], 963 pg · h/10^6 cells under setting [2] and 1107 pg · h/10^6 cells under setting [3]. In addition, the Cmax is, setting by setting: under setting [1], 14.3 pg/10^6 cells; under setting [2], 8.41 pg/10^6 cells; under setting [3], 7.68 pg/10^6 cells.
